Test results: patent US12312359B2 (Vitae Pharmaceuticals, LLC, priority 2016, dated 2025)
pEC50, pIC50: −log10 of the molar value.

Legend:
[1] = molecular target: T1, biotinylated wild-type menin and MLL-AF9 fusion protein (menin/MLL binding) (Homo sapiens, UniProt O00255); experiment: Assay 1: menin/MLL binding AlphaLISA assay, wild-type menin; settings: Table 30; column head does not say wild-type or mutated menin
T1 construct: made in house; host or cells: menin: E. coli; MLL-AF9-FLAG: HEK293 cells, used as cleared lysate
T1 sequence (O00255 1-610): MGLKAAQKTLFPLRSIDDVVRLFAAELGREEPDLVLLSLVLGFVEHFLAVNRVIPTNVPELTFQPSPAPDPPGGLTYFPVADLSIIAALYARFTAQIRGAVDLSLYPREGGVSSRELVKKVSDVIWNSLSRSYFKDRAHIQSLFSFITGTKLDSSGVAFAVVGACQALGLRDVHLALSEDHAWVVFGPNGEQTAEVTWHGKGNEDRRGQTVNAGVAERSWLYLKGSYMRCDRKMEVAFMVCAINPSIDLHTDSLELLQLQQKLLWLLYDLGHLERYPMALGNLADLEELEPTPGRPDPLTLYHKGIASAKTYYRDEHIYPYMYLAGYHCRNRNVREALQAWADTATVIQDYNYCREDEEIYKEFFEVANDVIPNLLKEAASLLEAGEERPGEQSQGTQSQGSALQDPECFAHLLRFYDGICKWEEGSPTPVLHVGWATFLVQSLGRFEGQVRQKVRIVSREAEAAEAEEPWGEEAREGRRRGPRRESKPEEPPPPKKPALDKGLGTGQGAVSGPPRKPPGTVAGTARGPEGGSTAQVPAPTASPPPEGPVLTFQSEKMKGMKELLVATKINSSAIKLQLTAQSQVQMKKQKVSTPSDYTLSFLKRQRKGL
Summary of the method: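 Compound was preincubated 30 min at room temperature with biotinylated menin (5 nM) and MLL-AF9-FLAG lysate from HEK293 cells, pH 7.4 buffer with 5% DMSO and DTT. Bead-based Alpha signal after 60 min with streptavidin donor and anti-FLAG acceptor beads; four-parameter logistic fit gave IC50.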

[2] = tested on: human acute monocytic leukemia cell line MV-4-11; experiment: Assay 2: cell proliferation assay (ATP quantitation, CellTiter-Glo), MV-4-11; type: cell-based; settings: MV-4-11 cells
Experimental: Potencies of inhibitor compounds against cell proliferation was assessed against the human acute monocytic leukemia cell line MV-4-11 (ATCC® CRL-9591™) based on ATP quantitation. MV-4-11 cells or toxicity control HL-60 cells (ATCC® CCL-240™) were incubated in 96-well tissue culture plates (1.67×10^4 cells in 200 μL culture media containing 10% FBS per well) with or without test compound for 72 h at 37° C., 5% CO2. After incubation, each well was mixed by pipetting and 95 μL from each well was transferred to a well in 96-well black OptiPlate® plates (PerkinElmer). An equal volume of CellTiter-Glo® Luminescent Cell Viability Assay reagent (Promega) was added to each well, followed by mixing for 5 min on an orbital plate shaker. Luminescence was measured on a Wallac EnVision 2104 Multilabel Reader (PerkinElmer) to quantitate ATP.

SMILES	pIC50 [1]	pEC50 ([2]; 72 h)	pEC50 ([2]; Homo sapiens, MV4-11, 72 h)
CCN(C(=O)c1cc(F)ccc1Oc1cncnc1N1CCC2(CCN(Cc3ccc4c(c3)[nH]c(=O)n4C)C2)C1)C(C)C (stereo not shown) [Example 107, N-ethyl-5-fluoro-N-isopropyl-2-((4-(7-((1-methyl-2-oxo-2,3-dihydro-1H-benzo[d]imidazol-5-yl)methyl)-2,7-diazaspiro[4.4]nonan-2-yl)pyrimidin-5-yl)oxy)benzamide]	> 7.00	–	> 7.00
O=C(O)c1ccc(-c2cc(F)ccc2Oc2cncnc2N2CCC3(CCN(Cc4ccc5[nH]c(=O)[nH]c5c4)C3)C2)c(C2CC2)c1 (stereo not shown) [Example 44, 2-cyclopropyl-5′-fluoro-2′-((4-(7-((2-oxo-2,3-dihydro-1H-benzo[d]imidazol-5-yl)methyl)-2,7-diazaspiro[4.4]nonan-2-yl)pyrimidin-5-yl)oxy)-[1,1′-biphenyl]-4-carboxylic acid]	> 7.00	–	6.00 to 7.00
CC(C)c1ncncc1-c1cc(F)ccc1Oc1cncnc1N1CC2(CC(NCC3CCC(C)(C#N)CC3)C2)C1 (stereo not shown) [Example 140, 4-(((2-(5-(4-fluoro-2-(4-isopropylpyrimidin-5-yl)phenoxy)pyrimidin-4-yl)-2-azaspiro[3.3]heptan-6-yl)amino)methyl)-1-methylcyclohexane-1-carbonitrile]	> 7.00	–	6.00 to 7.00
CCN(C(=O)c1cc(F)ccc1Oc1cncnc1N1CC2(CCN(C[C@H]3CC[C@H](NS(C)(=O)=O)CC3)CC2)C1)C(C)C [Example 238, N-ethyl-5-fluoro-N-isopropyl-2-((4-(7-(((1r,4r)-4-(methylsulfonamido)cyclohexyl)methyl)-2,7-diazaspiro[3.5]nonan-2-yl)pyrimidin-5-yl)oxy)benzamide]	> 7.00	–	> 7.00
CCN(C(=O)C(C)C)c1cc(F)ccc1Oc1cncnc1N1CC2(CCN(CC(C)C)C2)C1 [Example 136, N-ethyl-N-(5-fluoro-2-((4-(6-isobutyl-2,6-diazaspiro[3.4]octan-2-yl)pyrimidin-5-yl)oxy)phenyl)iso-butyramide]	> 7.00	–	6.00 to 7.00
CC(C)c1ncncc1-c1cc(F)ccc1Oc1cncnc1N1CCC2(CN(C(=O)Cc3ccc(C#N)cc3)C2)C1 [Example 130, 4-(2-(6-(5-(4-fluoro-2-(4-isopropylpyrimidin-5-yl)phenoxy)pyrimidin-4-yl)-2,6-diazaspiro[3.4]octan-2-yl)-2-oxoethyl)benzonitrile]	> 7.00	–	6.00 to 7.00
CC(C)n1nc(C(F)(F)F)cc1-c1cc(F)ccc1Oc1cncnc1N1CC2(CN(CC3(O)CCCCC3)C2)C1 [Example 72, 1-((6-(5-(4-fluoro-2-(1-isopropyl-3-(trifluoromethyl)-1H-pyrazol-5-yl)phenoxy)pyrimidin-4-yl)-2,6-diazaspiro[3.3]heptan-2-yl)methyl)cyclohexan-1-ol]	> 7.00	–	6.00 to 7.00
CC(C)(C)OC(=O)N[C@H]1CC[C@H](CCN2CC3(C2)CN(c2ncncc2Oc2ccc(F)cc2-c2cccnc2C2CC2)C3)CC1 [Example 88, tert-butyl ((1r,4r)-4-(2-(6-(5-(2-(2-cyclopropylpyridin-3-yl)-4-fluorophenoxy)pyrimidin-4-yl)-2,6-diazaspiro[3.3]heptan-2-yl)ethyl)cyclohexyl) carbamate]	> 7.00	–	> 7.00
CC(C)c1ncncc1-c1cc(F)ccc1Oc1cncnc1N1CC2(CN(CC3CCC(O)CC3)C2)C1 (stereo not shown) [Example 65, 4-((6-(5-(4-fluoro-2-(4-isopropylpyrimidin-5-yl)phenoxy)pyrimidin-4-yl)-2,6-diazaspiro[3.3]heptan-2-yl)methyl)cyclohexanol]	> 7.00	–	6.00 to 7.00
CC(C)N(C(=O)c1cc(F)ccc1Oc1cncnc1N1CC2(CC(NC3CCOCC3)C2)C1)C(C)C [Example 239, 5-fluoro-N,N-diisopropyl-2-((4-(6-((tetrahydro-2H-pyran-4-yl)amino)-2-azaspiro[3.3]heptan-2-yl)pyrimidin-5-yl)oxy)benzamide]	> 7.00	–	> 7.00
CC(C)c1ccccc1-c1cc(F)ccc1Nc1cncnc1N1CC2(CN(CC3(O)CCCCC3)C2)C1 [Example 242, 1-((6-(5-((5-fluoro-2′-isopropyl-[1,1′-biphenyl]-2-yl)amino)pyrimidin-4-yl)-2,6-diazaspiro [3.3]heptan-2-yl)methyl) cyclohexan-1-ol]	> 7.00	–	6.00 to 7.00
Cn1c(-c2cc(F)ccc2Oc2cncnc2N2CCC3(CCN(Cc4ccc5c(c4)[nH]c(=O)n5CCO)C3)C2)c(C2CC2)ccc1=O (single isomer, unassigned) [Example 81B, 5-((7-(5-(2-(3-cyclopropyl-1-methyl-6-oxo-1,6-dihydropyridin-2-yl)-4-fluorophenoxy)pyrimidin-4-yl)-2,7-diazaspiro[4.4]nonan-2-yl)methyl)-1-(2-hydroxyethyl)-1H-benzo[d]imidazol-2(3H)-one]	> 7.00	> 7.00	–
NC(=O)c1ccc(-c2cc(F)ccc2Oc2cncnc2N2CCC3(CCN(Cc4ccc5[nH]c(=O)[nH]c5c4)C3)C2)c(C2CC2)c1 (stereo not shown) [Example 43, 2-cyclopropyl-5′-fluoro-2′-((4-(7-((2-oxo-2,3-dihydro-1H-benzo[d]imidazol-5-yl)methyl)-2,7-diazaspiro[4.4]nonan-2-yl)pyrimidin-5-yl)oxy)-[1,1′-biphenyl]-4-carboxamide]	> 7.00	–	> 7.00

Other lines, results leading:

pIC50 [1]	pEC50 ([2]; 72 h)	pEC50 ([2]; Homo sapiens, MV4-11, 72 h)	SMILES
> 7.00	6.00 to 7.00	–	CC(C)N(C)C(=O)c1cc(F)ccc1Oc1cncnc1N1CCC2(CCN(Cc3ccc(N4CCOC4=O)cc3)C2)C1 (stereo not shown) [Example 62, 5-fluoro-N-isopropyl-N-methyl-2-((4-(7-(4-(2-oxooxazolidin-3-yl)benzyl)-2,7-diazaspiro[4.4]nonan-2-yl)pyrimidin-5-yl)oxy)benzamide]
> 7.00	–	6.00 to 7.00	CCOC(=O)c1ccccc1-c1cc(F)ccc1Oc1cncnc1N1CCC2(CCN(Cc3ccc4[nH]c(=O)[nH]c4c3)C2)C1 (stereo not shown) [Example 223, ethyl 5′-fluoro-2′-((4-(7-((2-oxo-2,3-dihydro-1H-benzo[d]imidazol-5-yl)methyl)-2,7-diazaspiro[4.4]nonan-2-yl)pyrimidin-5-yl)oxy)-[1,1′-biphenyl]-2-carboxylate]
> 7.00	–	6.00 to 7.00	COC(=O)N[C@H]1CC[C@H](CN2CCC3(CC2)CN(c2ncncc2Oc2ccc(F)cc2C(=O)N(C)C(C)C)C3)CC1 [Example 95, methyl ((1r,4r)-4-((2-(5-(4-fluoro-2-(isopropyl(methyl)carbamoyl)phenoxy)pyrimidin-4-yl)-2,7-diazaspiro[3.5]nonan-7-yl)methyl)cyclohexyl) carbamate]
> 7.00	–	> 7.00	N#Cc1ccc(-c2cc(F)ccc2Oc2cncnc2N2CCC3(CCN(Cc4ccc5[nH]c(=O)[nH]c5c4)C3)C2)c(C2CC2)c1 (racemic) [Example 42, 2-cyclopropyl-5′-fluoro-2′-((4-(7-((2-oxo-2,3-dihydro-1H-benzo[d]imidazol-5-yl)methyl)-2,7-diazaspiro[4.4]nonan-2-yl)pyrimidin-5-yl)oxy)-[1,1′-biphenyl]-4-carbonitrile]
> 7.00	–	> 7.00	CCN(C(=O)C(C)C)c1cc(F)ccc1Oc1cncnc1N1CC2(CN(C(=O)C3Cc4ccc(Br)cc4C3)C2)C1 (stereo not shown) [Example 120, N-(2-((4-(6-(5-bromo-2,3-dihydro-1H-indene-2-carbonyl)-2,6-diazaspiro [3.3]heptan-2-yl)pyrimidin-5-yl)oxy)-5-fluorophenyl)-N-ethylisobutyramide]
> 7.00	–	> 7.00	CC(C)N(C(=O)c1cc(F)ccc1Oc1cncnc1N1CC2(CN(CC[C@H]3CC[C@H](NC(=O)OC(C)(C)C)CC3)C2)C1)C(C)C [Example 115, tert-butyl ((1r,4r)-4-(2-(6-(5-(2-(diisopropylcarbamoyl)-4-fluorophenoxy)pyrimidin-4-yl)-2,6-diazaspiro[3.3]heptan-2-yl)ethyl)cyclohexyl) carbamate]
> 7.00	–	6.00 to 7.00	CC(C)N(C)C(=O)c1cc(F)ccc1Oc1cncnc1N1CCC2(CCN(Cc3ccc4c(c3)[nH]c(=O)n4C)C2)C1 (stereo not shown) [Example 163, 5-fluoro-N-isopropyl-N-methyl-2-((4-(7-((1-methyl-2-oxo-2,3-dihydro-1H-benzo[d]imidazol-5-yl)methyl)-2,7-diazaspiro[4.4]nonan-2-yl)pyrimidin-5-yl)oxy)benzamide]
